Literature values, collected in US20080069886A1, “Spironolactone nanoparticles, compositions and methods related thereto” (JAGOTEC AG, priority 2001, published 2008).

solubility in water: 2.8 mg/100 ml
Compound: CC(=O)S[C@@H]1CC2=CC(=O)CC[C@]2(C)[C@H]2CC[C@@]3(C)[C@@H](CC[C@@]34CCC(=O)O4)[C@H]12 [Spironolactone]
